In patent US8450271B2, “Peptide-based scaffolds for cartilage regeneration and methods for their use” (Northwestern University, priority 2009, dated 2013):
Where no end group is shown, it is not given here. The star is where a group is joined. Lauroyl = CCCCCCCCCCCC(=O)*

How the values were obtained:
[1] = target: recombinant TGF-β1 (Homo sapiens, UniProt P01137); settings: among all possible 7-mer peptide sequences; cited from earlier work
[2] = test system: Rabbit Full Thickness Articular Cartilage Defects; test: Animal observation and gross pathology of rabbit knee cartilage defects at 12 weeks; format: in vivo, New Zealand White Rabbits; settings: gross examination at 12 weeks
Experimental: Animal study was conducted at Northwestern University (Chicago, Ill.) in accordance with a protocol approved by the University's Animal Care and Usage Committee (ACUC). Ten (10) male New Zealand White Rabbits (weighing 3-3.5 kg) were anesthetized by intramuscular injection of ketamine at 30-40 mg/kg and xylazine 5-7 mg/kg. Isoflourane (1-3%) and oxygen were supplied by face mask until the animal was induced to sedation and general anesthesia for the entire procedure. Life support monitoring was supervised by veterinarians at Northwestern University's Center for Comparative Medicine (CCM, Chicago, Ill.). Under sterile aseptic technique, a midline 2-cm incision was made with the knee flexed at 20 degrees and subsequently a medial parapatellar capsulotomy was performed and the patella was translated laterally to expose the articular surface of the trochlea. Two full thickness chondral defects 2-mm in diameter were created in the trochlea (proximal-medial and distal-lateral) using curettes. […]
Post-operatively each rabbit was given intramuscular (IM) antibiotics (Baytril 72 hours duration) and IM pain medicine (Buprenex 24 hours duration). Signs of local or systemic infection were recorded as well as the general health and recovery of the rabbits. Rabbits were also evaluated for ability to weight bear and mobility within cages. […]

[3] = test system: Rabbit Full Thickness Articular Cartilage Defects; test: Histological evaluation (O'Driscoll scoring) of cartilage regeneration after microfracture in rabbit articular cartilage defect model; format: in vivo, New Zealand White Rabbits
Experimental: Animal study was conducted at Northwestern University (Chicago, Ill.) in accordance with a protocol approved by the University's Animal Care and Usage Committee (ACUC). Ten (10) male New Zealand White Rabbits (weighing 3-3.5 kg) were anesthetized by intramuscular injection of ketamine at 30-40 mg/kg and xylazine 5-7 mg/kg. Isoflourane (1-3%) and oxygen were supplied by face mask until the animal was induced to sedation and general anesthesia for the entire procedure. Life support monitoring was supervised by veterinarians at Northwestern University's Center for Comparative Medicine (CCM, Chicago, Ill.). Under sterile aseptic technique, a midline 2-cm incision was made with the knee flexed at 20 degrees and subsequently a medial parapatellar capsulotomy was performed and the patella was translated laterally to expose the articular surface of the trochlea. Two full thickness chondral defects 2-mm in diameter were created in the trochlea (proximal-medial and distal-lateral) using curettes. The articular cartilage, including the calcified cartilage layer, was completely removed and subchondral bone was exposed using a micro-curette as shown in FIG. 4a. Care was taken to not disrupt the subchondral bone, and sharp edges were created at the transition zone with the surrounding intact cartilage. Microfracture was performed within the defects by creating 3 holes spaced equally apart, and 2-mm deep to subchondral bone with a micro-awl. Marrow blood was seen emerging out of each microfracture hole and was allowed to infiltrate the cartilage defect (see FIG. 4b), which was then treated as described in Example 4.2 by application of the TGF-binding peptide amphiphile gel, or a control gel, with or without the addition of exogenous recombinant TGF-β1.
Post-operatively each rabbit was given intramuscular (IM) antibiotics (Baytril 72 hours duration) and IM pain medicine (Buprenex 24 hours duration). Signs of local or systemic infection were recorded as well as the general health and recovery of the rabbits. Rabbits were also evaluated for ability to weight bear and mobility within cages. At 12-weeks post-surgery rabbits were euthanized by injection of pentobarbital intravenously with a secondary measure of bilateral thoracotomy. Subsequently, the distal femur was harvested and processed for histological analysis.
Two full-thickness defects were created in each knee, resulting in 4 defects per rabbit (or 40 defects total for the 10 rabbits studied). Rabbit knees were divided into 4 groups, with both defects in each knee receiving the same treatment, and the contralateral knee serving as a control to account for any systemic effects. A total volume of 10 microliters (uL) of the test solutions were administered directly to each cartilage defect by micropipette, using sterile, disposable plastic tips. The treatment received by each group is summarized as follows:
In order to induce gelation of the peptide amphiphile solutions in situ in the defect site, 8 uL of a 12.5 mg/mL PA solution in phosphate-buffered saline (PBS) was administered followed immediately by 2 uL of a 0.5 M CaCl2 (in water), resulting in a final concentration of 10 mg/mL of the peptide amphiphile and 100 mM CaCl2. Recombinant human TGF-β1 (rhTGF-β1, Peprotech Inc.) was included in the PA solutions for Group 1, 2 and 3, in a concentration of […], resulting in a total dose of 1 ng per defect at the treatment dose of 10 uL. For animals receiving the TGF-binding peptide amphiphile (SEQ ID NO:4) this molecule was mixed at 10 mol % with the filler peptide amphiphile (SEQ ID NO:8) (a 1:9 molecular ratio). Each defect received 0.1 mg total peptide amphiphile (10 mg/mL in a 10 uL dose), either filler PA alone (Group 2) or filler PA plus TGF-binding PA (Group 3 and 4).
After the animals were sacrificed and tissue harvested at 12 weeks, extracted femur specimens were fixed in 10% neutral buffered formalin, decalcified for 24 hours, and the tissue processed for paraffin embedding. […]

[4] = O'Driscoll score = 0, 1, 2 or 3, Mean ± SD, 12-weeks post-treatment
[5] = O'Driscoll score = 0, 1 or 2, Mean ± SD, 12-weeks post-treatment

Sequence of recombinant TGF-β1 (P01137 279-390 limits assumed): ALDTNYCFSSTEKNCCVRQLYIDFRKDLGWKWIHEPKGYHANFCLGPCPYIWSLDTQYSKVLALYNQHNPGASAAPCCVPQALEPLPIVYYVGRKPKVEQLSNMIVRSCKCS

Substance: HSNGLPL
- binding to recombinant TGF-β1 (phage display) [1]: strong, specific binding sequence

Substance: HSNGLPLGGGSEEEAAAVVV(K)-CO(CH2)10CH3 (HSNGLPLGGGSEEEAAAVVVK(Lauroyl)) [TGF-binding PA]
- macroscopic appearance of repair tissue (tissue fill, defect boundary) [2]: significantly more hyaline-like tissue filling the defects

Substance: rhTGF-β1: Recombinant human TGF-β1 (Peprotech Inc.); Group 1: 10 uL of PBS with 1 ng of rhTGF-β1
- qualitative assessment of histological sections (tissue morphology, defect fill, Safranin-O and Type II collagen staining) ([3]; 12 weeks, compared to controls): few had complete filling of the defect area
- Degenerative Changes [3, 4]: 2.70 ± 0.35
- Hypocellularity [3, 4]: 1.96 ± 0.72
- Safranin-O staining of matrix [3, 4]: 1.48 ± 0.60
- Surface regularity [3, 4]: 2.00 ± 0.80
- Bonding to adjacent cartilage [3, 5]: 1.33 ± 0.53
- Chondrocyte clustering [3, 5]: 1.26 ± 0.40
- Structural integrity [3, 5]: 1.07 ± 0.62
- Thickness [3, 5]: 1.15 ± 0.60
- Cellular morphology ([3]; O'Driscoll score = 0, 2, or 4, Mean ± SD, 12-weeks post-treatment): 2.56 ± 1.43
- Total (max. score = 24) ([3]; O'Driscoll total histological score, Mean ± SD, 12-weeks post-treatment): 15.52 ± 4.74
- O'Driscoll histological score ([3]; maximum possible score of 24, 12 weeks): 15.5±4.7
- defects with <50% thickness compared to the surrounding cartilage ([3]; number of defects, 12 weeks): 1 of 9
- defects with mild chondrocyte clustering ([3]; number of defects, 12 weeks): 7 of 9
- defects with normal cellularity in the regenerated tissue ([3]; number of defects, 12 weeks): 2 of 9
- defects with regenerated tissue completely bonded to the adjacent cartilage ([3]; number of defects, 12 weeks): 3 of 9
- defects with >50% but <100% (50%-100%) thickness compared to the surrounding cartilage ([3]; number of remaining defects, 12 weeks): 8
